# In US11976083B2, “Inhibitors of peptidylarginine deiminases” (Gilead Sciences, Inc., priority 2020, dated 2024):
# Target: T1, human PAD4 (Homo sapiens, UniProt Q9UM07)
# T1 construct: human PAD4 (NM_012387), A2-P663, was PCR amplified; His-SUMO (N, cleaved yes); made in house; host or cells: E. coli BL21(DE3)
# Experiment: In vitro PAD4 BAEE biochemical assay
# Conditions: BAEE substrate 3 mM, 5 nM PAD4, 2 mM calcium chloride; geometric mean of multiple experiments
# Method in brief: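 Recombinant human PAD4 (5 nM final) with 2 mM CaCl2 was preincubated with compound 30 min at 25 °C in MOPS buffer pH 7.6, then reacted with 3 mM BAEE for 2 h at 25 °C. After EDTA stop, released ammonia was detected by o-phthalaldehyde/DTT fluorescence (ex 405/em 535 nm); IC50 from four-parameter fit, geometric mean.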
# T1 sequence (Q9UM07 2-663): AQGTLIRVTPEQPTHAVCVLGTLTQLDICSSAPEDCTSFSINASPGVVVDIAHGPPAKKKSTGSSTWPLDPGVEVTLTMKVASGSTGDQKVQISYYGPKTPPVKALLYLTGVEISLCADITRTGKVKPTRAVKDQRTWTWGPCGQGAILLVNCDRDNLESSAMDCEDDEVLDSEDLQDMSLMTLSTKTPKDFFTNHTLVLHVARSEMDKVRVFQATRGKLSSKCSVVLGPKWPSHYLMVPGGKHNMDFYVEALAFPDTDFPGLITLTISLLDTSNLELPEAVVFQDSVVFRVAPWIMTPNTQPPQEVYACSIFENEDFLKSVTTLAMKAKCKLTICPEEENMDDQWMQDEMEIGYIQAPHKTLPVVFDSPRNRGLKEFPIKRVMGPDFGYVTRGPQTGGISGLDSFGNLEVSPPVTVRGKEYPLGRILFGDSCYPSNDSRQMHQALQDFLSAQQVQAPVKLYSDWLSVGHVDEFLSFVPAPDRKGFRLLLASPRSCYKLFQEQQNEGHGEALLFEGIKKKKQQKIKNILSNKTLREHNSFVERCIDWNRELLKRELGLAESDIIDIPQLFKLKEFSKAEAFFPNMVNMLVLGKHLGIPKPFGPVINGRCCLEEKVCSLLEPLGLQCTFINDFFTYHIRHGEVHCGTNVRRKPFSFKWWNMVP
row,IC50 [nM],SMILES
1,72,"COc1cc(C(=O)N2C[C@H](N)[C@@H]3CC[C@H]2C3)cc2nc(-c3cc4ccc5nc4n3CCCCCCC3(CC3)C(=O)N[C@@H]5C)n(C)c12 [Example 445, (11~{R})-17-[5-[(1~{S},4~{R},5~{R})-4-amino-2-azabicyclo[3.2.1]octane-2-carbonyl]-7-methoxy-1-methyl-benzimidazol-2-yl]-11-methyl-spiro[1,10,19-triazatricyclo[10.5.2.0^{15,18}]nonadeca-12(19),13,15(18),16-tetraene-8,1′-cyclopropane]-9-one]"
2,110,"COc1cc(C(=O)N2CC[C@@H](OC)[C@@H](N)C2)cc2nc(-c3cc4ccc5nc4n3CCCCCc3cccnc3C(=O)N[C@@H]5C)n(C)c12 [Example 503, (2~{R})-17-[5-[(3~ {S},4~{R})-3-amino-4-methoxy-piperidine-1-carbonyl]-7-methoxy-1-methyl-benzimidazol-2-yl]-2-methyl-3,6,16,22-tetrazatetracyclo [14.5.2.0^{5,10).0^{19,23}] tricosa-1(22),5(10),6,8,17,19(23),20-heptaen-4-one]"
3,187,"COc1cc(C(=O)N2[C@H]3CC[C@@H]2[C@H](N)[C@H](O)C3)cc2nc(-c3cc4ccc5nc4n3CCCCCCC3(CC3)C(=O)N[C@@H]5C)n(C)c12 [Example 207, (11~{R})-17-[5-[(1~{R},2~{S},3~{R},5~{S})-2-amino-3-hydroxy-8-azabicyclo[3.2.1]octane-8-carbonyl]-7-methoxy-1-methyl-benzimidazol-2-yl]-11-methyl-spiro[1,10,19-triazatricyclo[10.5.2.0^{15,18}]nonadeca-12(19),13,15(18),16-tetraene-8,1′-cyclopropane]-9-one]"
4,64,"COc1cc(C(=O)N2C[C@H](N)[C@@H]3CC[C@H]2C3)cc2nc(-c3cc4ccc5nc4n3CCCCCC[C@@](F)(c3ccccn3)C(=O)N[C@@H]5C)n(C3CC3)c12 (single isomer, unassigned) [Example 944, (8˜{R},11˜{R})-17-[5-[(1˜{S},4˜{R},5˜{R})-4-amino-2-azabicyclo[3.2.1]octane-2-carbonyl]-1-cyclopropyl-7-methoxy-benzimidazol-2-yl]-8-fluoro-11-methyl-8-(2-pyridyl)-1,10,19-triazatricyclo[10.5.2.0^{15,18}]nonadeca-12(19),13,15(18),16-tetraen-9-one]"
5,196,"C[C@H]1NC(=O)C(C)(C)CCCCCCn2c(-c3nc4cc(C(=O)N[C@@H]5CCCNC5)c(F)cc4n3C3CC3)cc3ccc1nc32 [Example 176, 1-cyclopropyl-6-fluoro-~{N}-[(3~{R})-3-piperidyl]-2-[(11~{R})-8,8,11-trimethyl-9-oxo-1,10,19-triazatricyclo[10.5.2.0^{15,18}]nonadeca-12(19),13,15(18),16-tetraen-17-yl]benzimidazole-5-carboxamide]"
6,56,"C[C@H]1NC(=O)[C@@]2(C)C[C@@H]2CCCCCn2c(-c3nc4cc(C(=O)N[C@H]5CNCC[C@@H]5F)c(F)cc4n3C)cc3ccc1nc32 [Example 548, 2-[(2~{R},5~{S},7~ {S})-2,5-dimethyl-4-oxo-3,13,19-triazatetracyclo[11.5.2.0^ {5,7}.0^{16,20}]icosa-1(19),14,16(20),17-tetraen-14-yl]-6-fluoro-~{N}-[(3~{S},4~{S})-4-fluoro-3-piperidyl]-1-methyl-benzimidazole-5-carboxamide]"
7,128,"COc1cc(C(=O)N2CC[C@@H](OC)[C@@H](N)C2)cc2nc(-c3cc4ccc5nc4n3CC/C=C\C[C@H]3C[C@H]3C(=O)N[C@@H]5C)n(C)c12 [Example 517, (2~{R},5~{R},7~ {S},9~{Z})-14-[5-[(3~{S},4~{R})-3-amino-4-methoxy-piperidine-1-carbonyl]-7-methoxy-1-methyl-benzimidazol-2-yl]-2-methyl-3,13,19-triazatetracyclo[11.5.2.0^ {5,7}.0^{16,20}] icosa-1(19),9,14,16(20), 17-pentaen-4-one]"
8,231,"C[C@H]1NC(=O)[C@](F)(c2cccc(Cl)n2)CCCCCCn2c(-c3nc4cc(C(=O)N5C[C@H](N)[C@@H]6CC[C@H]5C6)cc(F)c4n3C3CC3)cc3ccc1nc32 [Example 481, (8~{R},11~{R})-17-[5-[(1~{S},4~{R},5~{R})-4-amino-2-azabicyclo[3.2.1]octane-2-carbonyl]-1-cyclopropyl-7-fluoro-benzimidazol-2-yl]-8-(6-chloro-2-pyridyl)-8-fluoro-11-methyl-1,10,19-triazatricyclo[10.5.2.0^{15,18}]nonadeca-12(19),13,15(18),16-tetraen-9-one]"
9,51,"COc1cc(C(=O)N2[C@H]3CC[C@@H]2[C@H](N)[C@H](OC)C3)cc2nc(-c3cc4ccc5nc4n3CCCCC[C@@H]3C[C@H]3C(=O)N[C@@H]5C)n(C)c12 [Example 584, (2~{R},5~{R},7~{R})-14-[5-[(1~{R},2~{S},3~ {R},5~{S})-2-amino-3-methoxy-8-azabicyclo[3.2.1]octane-8-carbonyl]-7-methoxy-1-methyl-benzimidazol-2-yl]-2-methyl-3,13,19-triazatetracyclo [11.5.2.0^{5,7}.0^{16,20}] icosa-1(19),14,16(20), 17-tetraen-4-one]"
10,26,"COc1cc(C(=O)N2C[C@H](N)[C@@H]3CC[C@H]2C3)cc2nc(-c3cc4ccc5nc4n3CCCCCc3nc(Cl)ccc3C(=O)N[C@@H]5C)c(C)n12 [Example 811, (2~{R})-17-[7-[(1~{S),4~ {R},5~{R})-4-amino-2-azabicyclo[3.2.1]octane-2-carbonyl]-5-methoxy-3-methyl-imidazo[1,2-a]pyridin-2-yl]-8-chloro-2-methyl-3,9,16,22-tetrazatetracyclo[14.5.2.0^ {5,10).0^{19,23}]tricosa-1(21),5(10),6,8,17,19,22-heptaen-4-one]"
11,29,"C[C@H]1NC(=O)[C@@H]2C[C@H]2CCCC(F)(F)Cn2c(-c3nc4cc(C(=O)N5C[C@H](N)[C@@H]6CC[C@H]5C6)cc(F)c4n3[C@H]3C[C@H]3C(F)F)cc3ccc1nc32 [Example 755, (2~{R},5~{R},7~{R})-14-[5-[(1~{S},4~{R},5~{R})-4-amino-2-azabicyclo[3.2.1]octane-2-carbonyl]-1-[(1~{S},2~{R})-2-(difluoromethyl)cyclopropyl]-7-fluoro-benzimidazol-2-yl]-11,11-difluoro-2-methyl-3,13,19-triazatetracyclo[11.5.2.0^ {5,7}.0^{16,20}]icosa-1(19),14,16(20),17-tetraen-4-one]"
12,59,"COc1cc(C(=O)N2C[C@H](N)[C@@H]3CC[C@H]2C3)cc2nc(-c3cc4ccc5nc4n3CCCCCc3cc(Cl)ccc3C(=O)N[C@@H]5C)n(C)c12 [Example 901, (2~{R})-17-[5-[(1~{S),4~{R}, 5~{R})-4-amino-2-azabicyclo [3.2.1]octane-2-carbonyl]-7-methoxy-1-methyl-benzimidazol-2-yl]-8-chloro-2-methyl-3,16,22-triazatetracyclo [14.5.2.0^{5,10}.0^{19,23}] tricosa-1(22),5(10),6,8,17, 19(23),20-heptaen-4-one]"
13,82,"COc1cc(C(=O)N2C[C@H](N)[C@@H]3CC[C@H]2C3)cc2nc(-c3cc4ccc5nc4n3CCCCCc3nc(C(F)(F)F)ccc3C(=O)N[C@@H]5C)n(C3CC3)c12 [Example 847, (2~{R})-17-[5-[(1~{S},4~{R}, 5~{R})-4-amino-2-azabicyclo [3.2.1]octane-2-carbonyl]-1-cyclopropyl-7-methoxy-benzimidazol-2-yl]-2-methyl-8-(trifluoromethyl)-3,9,16,22-tetrazatetracyclo[14.5.2.0^ {5,10}.0^{19,23}]tricosa-1(22),5(10),6,8,17,19(23),20-heptaen-4-one]"
14,222,"COc1cc(C(=O)N[C@H]2CNCC[C@@H]2F)cc2nc(-c3cc4ccc5nc4n3C[C@H]3C[C@H]3CCC[C@](C)(C(F)(F)F)C(=O)N[C@@H]5C)n(C)c12 [Example 371, 2-[(3~{S},5~{R},9~{S},12~{R})-9,12-dimethyl-10-oxo-9-(trifluoromethyl)-1,11,20-triazatetracyclo[11.5.2.0^{3,5}.0^{16,19}]icosa-13(20),14,16(19),17-tetraen-18-yl]-~{N}-[(3~{S},4~{S})-4-fluoro-3-piperidyl]-7-methoxy-1-methyl-benzimidazole-5-carboxamide]"
15,86,"COc1cc(C(=O)N2CC[C@@H](OCC3CC3)[C@@H](N)C2)cc2nc(-c3cc4ccc5nc4n3CCCCC[C@@H]3C[C@H]3C(=O)N[C@@H]5C)n(C)c12 [Example 490, (2~{R},5~{R},7~{R})-14-[5-[(3~{S},4~{R})-3-amino-4-(cyclopropylmethoxy)piperidine-1-carbonyl]-7-methoxy-1-methyl-benzimidazol-2-yl]-2-methyl-3,13,19-triazatetracyclo [11.5.2.0^{5,7}.0^{16,20}] icosa-1(19),14,16(20), 17-tetraen-4-one]"
16,85,"COc1cc(C(=O)N2CC[C@@H](OC)[C@@H](N)C2)cc2nc(-c3cc4ccc5nc4n3CCCCCCC3(COC3)C(=O)N[C@@H]5C)n(C)c12 [Example 611, (11~{R})-17-[5-[(3~{S}, 4-{R})-3-amino-4-methoxy-piperidine-1-carbonyl]-7-methoxy-1-methyl-benzimidazol-2-yl]-11-methyl-spiro[1,10,19-triazatricyclo[10.5.2.0^{15,18}]nonadeca-12,14,16,18-tetraene-8,3′-oxetane]-9-one]"
17,139,"COc1cc(C(=O)N[C@H]2CNCC[C@@H]2F)cc2nc(-c3cc4ccc5nc4n3CC(F)(F)CCCc3ccccc3C(=O)N[C@@H]5C)n(C)c12 [Example 186, 2-[(2~{R})-14,14-difluoro-2-methyl-4-oxo-3,16,22-triazatetracyclo[14.5.2.0^{5,10}.0^{19,23}]tricosa-1(22),5(10),6,8,17,19(23),20-heptaen-17-yl]-~{N}-[(3~{S},4~{S})-4-fluoro-3-piperidyl]-7-methoxy-1-methyl-benzimidazole-5-carboxamide]"
